Data as given in patent US20130052204A1, “(POLY)-GLYCEROLPHOSPHATE-BASED ANTI-GRAM POSITIVE BACTERIAL VACCINE” (priority 2009, published 2013).
Entries after “also recorded” stand apart in the source; their conditions may differ.

Experiments:
Type in all cases: binding
Pagibaximab (anti-LTA) = experiment: ELISA: biotinylated LTA or PGP added to Pagibaximab-coated plates; conditions: for O.D. readings: Pagibaximab-coated wells
Method: (§1) ELISA plates (96-well) were coated overnight with […] of Pagibaximab (anti-LTA), Zantibody (anti-peptidoglycan), or Synagis (anti-RSV), all of which are chimeric IgG1 antibodies. PGP was prepared as described above in Example 1, and LTA was extracted from S. aureus. The plates were then developed with horseradish peroxidase for 30 minutes.

Synagis (anti-RSV) = experiment: ELISA: biotinylated LTA or PGP added to Synagis-coated plates; conditions: Synagis-coated wells
Method: as §1

[1] = tested on: Zantibody (anti-peptidoglycan); experiment: ELISA: biotinylated LTA or PGP added to Zantibody-coated plates; conditions: anti-peptidoglycan-coated wells
Method: as §1

[2] = biotinylated LTA or PGP at 0.004 μg/ml
[3] = biotinylated LTA or PGP at 0.012 μg/ml
[4] = biotinylated LTA or PGP at 0.037 μg/ml
[5] = biotinylated LTA or PGP at 0.1 μg/ml
[6] = biotinylated LTA or PGP at 0.33 μg/ml
[7] = biotinylated LTA or PGP at 1 μg/ml
[8] = biotinylated LTA or PGP at 3 μg/ml

poly-glycerolphosphate [PGP]
O.D. readings (Pagibaximab (anti-LTA); [2]): 0.34
O.D. readings (Pagibaximab (anti-LTA); [3]): 0.51
O.D. readings (Pagibaximab (anti-LTA); [4]): 0.67
O.D. readings (Pagibaximab (anti-LTA); [5]): 0.89
O.D. readings (Pagibaximab (anti-LTA); [6]): 1.09
O.D. readings (Pagibaximab (anti-LTA); [7]): 1.42
O.D. readings (Pagibaximab (anti-LTA); biotinylated LTA or PGP at 3 μg/ml, one hour): 1.91
recognition / binding by Pagibaximab (in words) (Pagibaximab (anti-LTA); compared with LTA from S. aureus): recognized; also recorded: binds equally well
O.D. readings (Synagis (anti-RSV); [2]): <0.02
O.D. readings (Synagis (anti-RSV); [3]): <0.02
O.D. readings (Synagis (anti-RSV); [4]): <0.02
O.D. readings (Synagis (anti-RSV); [5]): <0.02
O.D. readings (Synagis (anti-RSV); [6]): <0.02
O.D. readings (Synagis (anti-RSV); [7]): <0.02
O.D. readings (Synagis (anti-RSV); [8]): <0.02
O.D. readings [1, 2]: <0.02
O.D. readings [1, 3]: <0.02
O.D. readings [1, 4]: <0.02
O.D. readings [1, 5]: <0.02
O.D. readings [1, 6]: <0.02
O.D. readings [1, 7]: <0.02
O.D. readings [1, 8]: 0.03
